Key:
full length human RORγt = target: T1, full length human RORγt (Homo sapiens, UniProt P51449); assay: 5×RORE based luciferase assay; assay type: cell-based; conditions: COS-7 cells transfected with 5×RORE-Luc and hRORγt, 18-20 h treatment
T1 construct: full length human RORγt together in COS-7 cells; expressed in transfected cells; host or cells: COS-7
T1 sequence (P51449 1-497 isoform P51449-2): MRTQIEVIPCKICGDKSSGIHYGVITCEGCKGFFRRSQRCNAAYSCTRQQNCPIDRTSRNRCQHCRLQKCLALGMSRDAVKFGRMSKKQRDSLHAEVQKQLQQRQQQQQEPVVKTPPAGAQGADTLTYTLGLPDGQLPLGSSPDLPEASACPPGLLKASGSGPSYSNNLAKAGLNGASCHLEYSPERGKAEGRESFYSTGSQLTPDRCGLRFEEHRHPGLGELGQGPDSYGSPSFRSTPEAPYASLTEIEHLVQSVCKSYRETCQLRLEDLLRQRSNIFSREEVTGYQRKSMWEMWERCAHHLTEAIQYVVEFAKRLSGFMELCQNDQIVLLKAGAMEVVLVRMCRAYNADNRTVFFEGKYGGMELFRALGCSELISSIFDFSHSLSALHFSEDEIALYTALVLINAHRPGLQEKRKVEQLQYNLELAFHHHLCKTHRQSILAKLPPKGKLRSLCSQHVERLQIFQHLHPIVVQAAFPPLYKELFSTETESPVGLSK
Method: Human RORγt (hRORγt) inhibitors were screened in RORE (RORγt Response Element) based Luciferase assay by transient transfection of 5×RORE (5 tandem repeats of RORγt Response Element) and full length human RORγt together in COS-7 cells. COS-7 cells were maintained as monolayer in complete DMEM (High Glucose) medium in presence of 2 mM Glutamin and 1× Sodium Pyruvate. Day before transfection, 15000 cells were seeded in 96 well cell culture plate in 100 μl antibiotic free medium and incubated at 37° C. in 5% CO2 containing humidified chamber O/N. Prior to transfection, cells were fed with fresh complete growth medium and incubated until the addition of transfection complex. Transfection complex for the required numbers of wells were prepared from pGL2-promoter-5×RORE-Luc plasmid, pcDNA3.1 (+)-hRORγt expression plasmid, pβ-GAL plasmid (transfection control), and Lipofectamine 3000 (Invitrogen). 50 μl of transfection complex were added in 100 μl of complete medium to respective wells, mixed gently and plate was incubated for 5-6 h at 37° C. in 5% CO2 containing humidified chamber. After 5 h of transfection, content of the wells were aspirated and cells were treated with increasing concentration of RORγt inverse agonist in medium devoid of serum with a final DMSO concentration of 0.2% for 18-20 h at 37° C. in 5% CO2 containing humidified chamber. Next day, cells were lysed and the lysates were assayed for luciferase and β-GAL activity using Promega's luciferase assay system and an in-house made β-GAL assay buffer respectively. Luciferase signals were normalized with β-GAL and % activity was determined with respect to that of 10 nM control ligand.
IC50 of selected compounds were then determined by nonlinear regression analysis of % activity, plotted against compound concentration (Table 4).

[1] = tested on: secreted IL-17 in peripheral blood mononuclear cells (PBMCs); assay: Human IL-17 inhibition assay; assay type: cell-based; conditions: PBMC, anti-CD3/anti-CD28, 72 h, read-out: IL17 IC50
Method: Peripheral blood mononuclear cells (PBMCs) were isolated from healthy volunteers and subjected to T cell polarization assay. Two million PBMCs were placed on anti-CD3 (Biolegend, US) coated 96-well plates and 1 μg/mL of anti-CD28 (Biolegend, US) was added along with RORγt inhibitors or the vehicle control and incubated at 37° C. and 5% CO2 for 72 h. At the end of incubation time, the supernatant was collected and analyzed for secreted IL-17 using sandwich enzyme immunoassay (Mabtech AB, Sweden). The results were analyzed using Graphpad Prism and the half-maximal inhibitory concentrations (IC50) of the test compounds were derived (Table 4).

IC50 (full length human RORγt) [nM] | SMILES | IC50 [1] [nM]
1.5 | CCS(=O)(=O)c1ccc(CC(=O)Nc2cc(Cl)c(C3(c4noc(C5CC5)n4)CC3)c(Cl)c2)cc1 [Example 25, N-(3,5-dichloro-4-(1-(5-cyclopropyl-1,2,4-oxadiazol-3-yl)cyclopropyl)phenyl)-2-(4-(ethylsulfonyl)phenyl)acetamide] | 14
2.5 | CCS(=O)(=O)c1ccc(CC(=O)Nc2cc(Cl)c(C3(c4noc(C5CC(F)(F)C5)n4)CC3)c(Cl)c2)cc1 [Example 26, N-(3,5-dichloro-4-(1-(5-(3,3-difluorocyclobutyl)-1,2,4-oxadiazol-3-yl)cyclopropyl)phenyl)-2-(4-(ethylsulfonyl)phenyl)acetamide] | 7.3
13 | CCS(=O)(=O)c1ccc(CC(=O)Nc2cc(Cl)c(C3(c4noc(C5CCOCC5)n4)CC3)c(Cl)c2)cc1 [Example 27, N-(3,5-dichloro-4-(1-(5-(tetrahydro-2H-pyran-4-yl)-1,2,4-oxadiazol-3-yl)cyclopropyl)phenyl)-2-(4-(ethylsulfonyl)phenyl)acetamide] | 10.8
5.8 | CCS(=O)(=O)c1ccc(CC(=O)Nc2cc(F)c(C3(c4noc(-c5ccc(F)cc5)n4)CC3)c(F)c2)cc1 [Example 28, N-(3,5-difluoro-4-(1-(5-(4-fluorophenyl)-1,2,4-oxadiazol-3-yl)cyclopropyl)phenyl)-2-(4-(ethylsulfonyl)phenyl)acetamide] | 41.6
19.4 | CCS(=O)(=O)c1ccc(CC(=O)Nc2cc(F)c(C3(c4noc(-c5ccc(F)cc5)n4)CC3)c(Cl)c2)cc1 [Example 29, N-(3-chloro-5-fluoro-4-(1-(5-(4-fluorophenyl)-1,2,4-oxadiazol-3-yl)cyclopropyl)phenyl)-2-(4-(ethylsulfonyl)phenyl)acetamide] | 19
12.6 | CCS(=O)(=O)c1ccc(CC(=O)Nc2cc(F)c(C3(c4noc(-c5ccc(C(F)(F)F)cc5)n4)CC3)c(Cl)c2)cc1 [Example 31, N-(3-chloro-5-fluoro-4-(1-(5-(4-(trifluoromethyl)phenyl)-1,2,4-oxadiazol-3-yl)cyclopropyl)phenyl)-2-(4-(ethylsulfonyl)phenyl)acetamide] | 50
5.96 | CCS(=O)(=O)c1ccc(CC(=O)Nc2cc(F)c(C3(c4noc(-c5ccc(C#N)cc5)n4)CC3)c(Cl)c2)cc1 [Example 32, N-(3-chloro-4-(1-(5-(4-cyanophenyl)-1,2,4-oxadiazol-3-yl)cyclopropyl)-5-fluorophenyl)-2-(4-(ethylsulfonyl)phenyl)acetamide] | 18
20.2 | CCS(=O)(=O)c1ccc(CC(=O)Nc2cc(C)c(C3(c4noc(-c5ccc(F)cc5)n4)CC3)c(C)c2)cc1 [Example 33, 2-(4-(ethylsulfonyl)phenyl)-N-(4-(1-(5-(4-fluorophenyl)-1,2,4-oxadiazol-3-yl)cyclopropyl)-3,5-dimethylphenyl)acetamide] | 24
2.3 | CCS(=O)(=O)c1ccc(CC(=O)Nc2cc(Cl)c(C3(c4nc(-c5ccc(F)cc5)no4)CC3)c(Cl)c2)cc1 [Example 35, N-(3,5-dichloro-4-(1-(3-(4-fluorophenyl)-1,2,4-oxadiazol-5-yl)cyclopropyl)phenyl)-2-(4-(ethylsulfonyl)phenyl)acetamide] | 12
2.44 | CCS(=O)(=O)c1ccc(CC(=O)Nc2cc(Cl)c(C3(c4nc5ccc(F)cc5o4)CC3)c(Cl)c2)cc1 [Example 36, N-(3,5-dichloro-4-(1-(6-fluorobenzo[d]oxazol-2-yl)cyclopropyl)phenyl)-2-(4-(ethylsulfonyl)phenyl)acetamide] | 19
1.5 | CCS(=O)(=O)c1ccc(CC(=O)Nc2cc(Cl)c(C3(c4ncc(-c5ccc(F)cc5)o4)CC3)c(Cl)c2)cc1 [Example 38, N-(3,5-dichloro-4-(1-(5-(4-fluorophenyl)oxazol-2-yl)cyclopropyl)phenyl)-2-(4-(ethylsulfonyl)phenyl)acetamide] | 23
22.5 | CCS(=O)(=O)c1ccc(CC(=O)Nc2cc(Cl)c(C3(c4ncc(-c5ccc(Cl)cc5)o4)CC3)c(Cl)c2)cc1 [Example 39, N-(3,5-dichloro-4-(1-(5-(4-chlorophenyl)oxazol-2-yl)cyclopropyl)phenyl)-2-(4-(ethylsulfonyl)phenyl)acetamide] | 22
0.76 | CCS(=O)(=O)c1ccc(CC(=O)Nc2cc(Cl)c(C3(c4noc(-c5ccc(F)cc5)n4)CC3)c(Cl)c2)nc1 [Example 41, N-(3,5-dichloro-4-(1-(5-(4-fluorophenyl)-1,2,4-oxadiazol-3-yl)cyclopropyl)phenyl)-2-(5-(ethylsulfonyl)pyridin-2-yl)acetamide] | 15.5
10.3 | CCS(=O)(=O)c1ccc(CC(=O)Nc2cc(Cl)c(C3(c4noc(-c5ccc(F)c(F)c5)n4)CC3)c(Cl)c2)nc1 [Example 44, N-(3,5-dichloro-4-(1-(5-(3,4-difluorophenyl)-1,2,4-oxadiazol-3-yl)cyclopropyl)phenyl)-2-(5-(ethylsulfonyl)pyridin-2-yl)acetamide] | 43
12.9 | CCS(=O)(=O)c1ccc(CC(=O)Nc2cc(Cl)c(C3(c4noc(-c5ccc(F)cc5Cl)n4)CC3)c(Cl)c2)nc1 [Example 46, N-(3,5-dichloro-4-(1-(5-(2-chloro-4-fluorophenyl)-1,2,4-oxadiazol-3-yl)cyclopropyl)phenyl)-2-(5-(ethylsulfonyl)pyridin-2-yl)acetamide] | 17.1
10.1 | CCS(=O)(=O)c1ccc(CC(=O)Nc2cc(Cl)c(C3(c4noc(-c5ccc(F)c(Cl)c5)n4)CC3)c(Cl)c2)nc1 [Example 47, N-(3,5-dichloro-4-(1-(5-(3-chloro-4-fluorophenyl)-1,2,4-oxadiazol-3-yl)cyclopropyl)phenyl)-2-(5-(ethylsulfonyl)pyridin-2-yl)acetamide] | 17.9
10.5 | CCS(=O)(=O)c1ccc(CC(=O)Nc2cc(Cl)c(C3(c4noc(-c5ccc(Cl)c(Cl)c5)n4)CC3)c(Cl)c2)nc1 [Example 48, N-(3,5-dichloro-4-(1-(5-(3,4-dichlorophenyl)-1,2,4-oxadiazol-3-yl)cyclopropyl)phenyl)-2-(5-(ethylsulfonyl)pyridin-2-yl)acetamide] | 38.9
4.7 | CCS(=O)(=O)c1ccc(CC(=O)Nc2cc(Cl)c(C3(c4noc(-c5ccc(Cl)cc5Cl)n4)CC3)c(Cl)c2)nc1 [Example 49, N-(3,5-dichloro-4-(1-(5-(2,4-dichlorophenyl)-1,2,4-oxadiazol-3-yl)cyclopropyl)phenyl)-2-(5-(ethylsulfonyl)pyridin-2-yl)acetamide] | 17
14.5 | CCS(=O)(=O)c1ccc(CC(=O)Nc2cc(Cl)c(C3(c4noc(-c5ccc(Cl)cc5)n4)CC3)c(Cl)c2)nc1 [Example 50, N-(3,5-dichloro-4-(1-(5-(4-chlorophenyl)-1,2,4-oxadiazol-3-yl)cyclopropyl)phenyl)-2-(5-(ethylsulfonyl)pyridin-2-yl)acetamide] | 30
12.1 | CCS(=O)(=O)c1ccc(CC(=O)Nc2cc(Cl)c(C3(c4noc(-c5cccc(Cl)c5)n4)CC3)c(Cl)c2)nc1 [Example 51, N-(3,5-dichloro-4-(1-(5-(3-chlorophenyl)-1,2,4-oxadiazol-3-yl)cyclopropyl)phenyl)-2-(5-(ethylsulfonyl)pyridin-2-yl)acetamide] | 16

— US20190152962A1, “CYCLOPROPYL DERIVATIVES AS ROR-GAMMA MODULATORS” (CADILA HEALTHCARE LIMITED, priority 2016, published 2019)
